What was measured:
[1] = target: T1, human recombinant MAO-B (hMAO-B) (Homo sapiens, UniProt P27338); assay: In vitro MAO-B enzyme assay (H2O2 release, absorbance 570 nm); format: biochemical
T1 construct: purchased Sigma Aldrich
T1 sequence (P27338 1-520): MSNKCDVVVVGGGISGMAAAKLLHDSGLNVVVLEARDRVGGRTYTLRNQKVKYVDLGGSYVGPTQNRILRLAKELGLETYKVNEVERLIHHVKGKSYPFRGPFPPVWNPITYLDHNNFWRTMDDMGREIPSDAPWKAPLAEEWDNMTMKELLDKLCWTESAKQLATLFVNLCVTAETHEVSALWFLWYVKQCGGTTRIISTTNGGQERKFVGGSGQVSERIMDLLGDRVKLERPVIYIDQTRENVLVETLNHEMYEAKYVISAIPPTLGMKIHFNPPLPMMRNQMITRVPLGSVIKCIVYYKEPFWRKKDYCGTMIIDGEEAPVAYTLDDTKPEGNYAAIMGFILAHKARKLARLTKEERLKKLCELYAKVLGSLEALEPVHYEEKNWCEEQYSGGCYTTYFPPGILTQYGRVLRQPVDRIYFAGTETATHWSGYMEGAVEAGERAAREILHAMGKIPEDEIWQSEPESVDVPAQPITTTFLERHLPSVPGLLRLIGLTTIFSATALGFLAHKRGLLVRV
Experimental: In brief, human recombinant MAO-A (hMAO-A) and MAO-B (hMAO-B) (Sigma Aldrich) were diluted in 50 mM phosphate buffer (~ 0.3 μg MAO-A protein/well or ~ 2.5 μg MAO-B protein/well), and the test compound was added in DMSO to a final concentration from 0.1 nM to 10 μM. The amount of hydrogen peroxide (H2O2) released after addition of enzyme substrate (p-tyramine for MAO-A or benzylamine for MAO-B) was quantified by measuring the absorbance increase at 570 nm on a microplate reader.

post-stroke recovery = test system: post-stroke recovery; set-up: method as in PMID 32640227; settings: long-term treatment accompanied by rehabilitation training; cited from earlier work
[2] = test system: MPTP-induced PD mouse model; assay: MPTP mouse model: vertical grid test and coat hanger test; format: in vivo; settings: MPTP mice
Experimental: Group allocation and outcome assessment, but not the conduct of experiments and data analysis, were performed in a blinded manner. Throughout the study, confounders were not controlled. An acclimation period of 7 days was allowed for animals to stabilize in a new environment before model induction. […] Treatment drugs were dissolved in 100 μL of water and total dose (in mg) was calculated according to individual body weight (in kg).
The MPTP model was established using the acute regimen of four intraperitoneal (i.p.) injections of MPTP-HCl (M0896, Sigma Aldrich, 2 mg/mL in saline, 20 mg/kg for one injection) at 2-h intervals.
Motor deficits of the MPTP-induced PD mouse model were assessed using the vertical grid test as described in the previous study [23]. Briefly, after 2 days of habituation to the testing apparatus, individual mice were gently placed 3 cm from the top, facing upward, and allowed to turn around and climb down. We also performed a coat hanger test as described [24–26]. Briefly, a mouse was gently hung on the middle of a coat hanger and allowed to ascend to the top. Performance was graded as follows: 0, falling off the hanger within 20 s; 1, moving to the side-bar of the hanger; 2, reaching the side-bar of the hanger; 3, climbing the side-bar of the hanger; 4, moving to the top of the hanger; 5, climbing and reaching the safe zone. The test was performed twice and each trial lasted a maximum of 3 min.

[3] = test system: APP/PS1 transgenic mouse model of AD; set-up: method as in PMID 30906861; settings: APP/PS1 mice; short-term (3 days) or long-term (30 days) treatment; cited from earlier work
[4] = test system: MPTP-induced PD mouse model; assay: MPTP mouse model: TH (DAB) and Nissl staining of SNpc and striatum; settings: MPTP mice; for TH optical density in the striatum / TH-positive cell number in the SNpc: vs MPTP plus vehicle
Experimental: (§5) Group allocation and outcome assessment, but not the conduct of experiments and data analysis, were performed in a blinded manner. Throughout the study, confounders were not controlled. An acclimation period of 7 days was allowed for animals to stabilize in a new environment before model induction. […] Treatment drugs were dissolved in 100 μL of water and total dose (in mg) was calculated according to individual body weight (in kg). […] An experiment was halted if body weight decreased by 20% or more after MPTP or 6-hydroxydopamine (6-OHDA) treatment.
The MPTP model was established using the acute regimen of four intraperitoneal (i.p.) injections of MPTP-HCl (M0896, Sigma Aldrich, 2 mg/mL in saline, 20 mg/kg for one injection) at 2-h intervals. All MPTP use and safety precautions were strictly followed as described [18].
Coronal sections for striatum and SNpc were prepared at 30-μm thickness and immunostained using a DAB staining kit (TL-060-QHD, Thermo, MA, USA). […] After washing in PBS 3 times, sections were incubated in Primary Antibody Amplifier Quanto (TA-060-QPB, Thermo) for 5 min, washed again in PBS, incubated in HRP Polymer Quanto for 1 h, washed 4 times in PBS, and dipped for 30 s in a 1:10 mixture of DAB + chromogen and DAB + substrate buffer (K3468, Dako, Denmark). Finally, sections were washed, immersed in mounting medium, and dried.
Every 6th section including the SN was stained with anti-TH and the number of TH-positive neurons counted under low magnification (× 10) from the rostral tip of the SNpc to the caudal end of the substantia nigra pars reticulate (SNpr). […] The total number of neurons per section was estimated according to the optical fractionator formula. The total number of SNpc neurons in a hemisphere was then obtained by multiplying the number counted using Stereo Investigator 11 by the slice interval (six).
Other 30-μm-thick coronal sections from the SNpc were Nissl stained to assess viable cell number. Briefly, slices were stained with 0.1% cresyl violet solution for 3 min, rinsed with distilled water, and placed in a chamber filled with 70% ethanol for 1 min. […] A series of bright field images were obtained using an Olympus microscope. The slices were classified according to AP coordinates and Nissl-positive neurons counted using the counting tool of ImageJ (NIH, MD, USA).

6-OHDA model rats = assay: 6-OHDA rat model: stepping test, rotarod test, TH; settings: 6-OHDA rats
Experimental: as §5
Finally, the 6-OHDA model was prepared as previously described [21]. Under general anesthesia, all rats received unilateral injections of 8 μg 6-OHDA (Sigma Aldrich) in 4 μL saline/0.1% ascorbic acid into the right medial forebrain bundle (AP − 2.2 mm and L + 1.5 mm relative to the bregma, V − 8.0 mm from the dura) [19], with the tooth bar set at + 4.5 mm.
Motor deficits of 6-OHDA and A53T mutant α-synuclein model rats were assessed as previously described with slight modifications [27]. Briefly, both hind limbs and one forelimb were firmly fixed in the two hands of the experimenter, and the rat was lowered over a treadmill moving at rate of 18 cm/s such that the body remained stationary while the free forelimb was allowed to spontaneously touch the moving treadmill track for 10 s. All experimental sessions were video recorded to count the number of adjusting steps taken in the backward direction. The number of adjusting steps was averaged across four trials in each session.
In addition, impaired motor coordination of 6-OHDA model rats was examined using the rotarod test as previously described with slight modifications [28]. […] Before the first rotarod test, all rats were pre-trained until riding time reached 60 s at 10 rpm (B.S Technolab, Seoul, Korea). Each session consisted of two trials, and riding time was averaged to obtain pre-6-OHDA, 0d, 7d, and 15d results.

[5] = Oral toxicity studies in cynomolgus monkeys (N217019, G217013, G218027); format: in vivo, cynomolgus monkey (Macaca fascicularis); settings: cynomolgus monkey, in vivo; cynomolgus monkeys, both sexes, 4-week repeated oral dosing; read-out: No Observed Adverse Effect Level (NOAEL)
Experimental: (§1) All non-human primate studies were conducted in the Good Laboratory Practice (GLP)-level laboratory of the Korea Institute of Toxicology (KIT, Jeollabuk-do, Korea) and approved by the KIT Institutional Animal Care and Use Committee. Cynomolgus monkeys (Macaca fascicularis) were obtained from the Nafovanny captive-breeding primate facility (Dong Nai Province, Vietnam) and housed individually in stainless cages (543 W × 715L × 818H in mm) during acclimation, pre-treatment, and dosing periods. All animals were at least 24 months old. The environment of the animal room was automatically controlled according to the Standard Operating Procedures of KIT (temperature: 20–29°C, relative humidity: 30–70%, light cycle: 12 h at 300–700 Lux, ventilation: 10–20 times/h, air pressure: negative). Males and females were assigned to treatment groups in a stratified manner using the Pristima System based on most recent body weight. Clinical signs, including mortality, moribundity, general appearance, and behavioral changes, were recorded with date, time, and duration. Body weight was measured prior to the first KDS2010 dose. For oral administration, KDS2010 was dissolved in water. In total, 42 monkeys were administered KDS2010 and ultimately sacrificed for autopsy. The four studies conducted on cynomolgus monkeys are summarized in Table 1 and described in greater detail below.
(§2) In the single-dose escalation study (N118029), each male and female monkey was administered oral KDS2010 at increasing doses of 25, 50, and 100 mg/kg/day once a week. Mortality and general symptoms were observed during the trial period. Body weight was also measured. Blood was collected for hematology, coagulation, and clinical chemistry tests pre-dose (0) and 8, 15, and 22 days post-dose. After administration of 100 mg/kg/day on day 22, an autopsy was performed to observe individual macroscopic findings.
(§3) In the repeated 2-week oral administration toxicity study (G217013) for 4-week dose range finding (DRF), monkeys were assigned to 4 groups of one male and one female. Each group was orally administered KDS2010 at 0, 25, 50, or 100 mg/kg/day once a day for 2 weeks. During the test period, general symptoms were monitored, weight and feed intake measured, and ophthalmological tests performed. Clinical pathological tests (hematology, coagulation, blood biochemistry, and urine tests) were also conducted. All animals were autopsied, during which individual macroscopic findings were recorded, organ weights measured, and samples obtained for histopathology.
(§4) In the repeated 4-week oral administration toxicity with 2-week recovery and toxicokinetic test (G218027), monkeys were assigned to 4 groups of 3 males and 3 females. Each group was orally administered KDS2010 at 0, 10, 20, or 40 mg/kg/day once a day for 4 weeks. Toxicity tests were conducted as described for study G217013. For toxicokinetic measurements, blood samples were collected pre-dose (time 0) and at 1, 2, 4, 6, 8, 10, and 24 h after oral administration on the first day (day 1) and the last day (week 4; day 28) of dosing.

cynomolgus monkeys = assay: as above; format: in vivo, cynomolgus monkey (Macaca fascicularis)
Experimental: as §1, §2, §3, §4

[6] = Toxicokinetics in 4-week repeated-dose study in cynomolgus monkeys (G218027); format: in vivo, cynomolgus monkey (Macaca fascicularis)
Experimental: as §4
A non-compartmental analysis module in Phoenix® WinNonlin® (version 6.4) (Certara Inc., CA, USA) was used to calculate pharmacokinetic (PK) parameters. Systemic exposure to KDS2010 was calculated by applying the linear trapezoidal rule to the area under the plasma concentration–time curve from time zero to the last quantifiable time point (AUClast), and the maximum observed peak plasma concentration (Cmax) and the time to reach Cmax (Tmax) were determined based on the observed data. The apparent terminal elimination half-life (t1/2) was calculated from the apparent terminal elimination rate constant using the formula t1/2 = 0.693/kel.

[7] = long-term (30-day) treatment, 10 mg/kg/day oral
[8] = post-treatment, administered 3 days after MPTP
[9] = pre-treatment, 10 mg/kg/day oral, 3 days starting 1 day before MPTP

C[C@H](NCc1ccc(-c2ccc(C(F)(F)F)cc2)cc1)C(N)=O [Compound 18j]
higher MAO-B inhibitory effect of (S)-stereoisomer than (R)-isomer (19j) [1]: eightfold
post-stroke recovery (post-stroke recovery): dramatically improved
vertical grid test: time to turn [2, 7]: reduced
vertical grid test: total time [2, 7]: reduced
coat hanger test: motor score [2, 8]: increased
vertical grid test: rate of missed steps [2, 8]: significantly reduced
vertical grid test: time to turn [2, 8]: significantly reduced
vertical grid test: total time [2, 8]: significantly reduced
vertical grid test: rate of missed steps [2, 9]: significantly reduced
vertical grid test: time to turn [2, 9]: significantly reduced
vertical grid test: total time [2, 9]: significantly reduced
coat hanger test: motor function score ([2]; pre-treatment, 10 mg/kg/day oral, vehicle-treated controls 1.8 ± 0.4, score 0-5): 3.6 ± 0.5
memory impairment [3]: effectively ameliorated
MPTP-induced reduction in Nissl-positive neurons in SNpc ([4]; post-treatment): but not post-treatment
TH optical density in the striatum ([4]; post-treatment): significantly increased
TH-positive cell number in the SNpc ([4]; post-treatment): significantly increased
MPTP-induced reduction in Nissl-positive neurons in SNpc ([4]; pre-treatment): partially prevented
TH optical density in the striatum ([4]; pre-treatment): significantly increased
TH-positive cell number in the SNpc ([4]; pre-treatment): significantly increased
stepping test: stepping behavior deficit of the contralateral forepaw (6-OHDA model rats; 10 mg/kg/day for 15 days starting 17 days post-6-OHDA): partially but significantly improved
rotarod test: reduction in riding time (latency to fall) (6-OHDA model rats; 15 days' treatment starting 17 days after 6-OHDA): partially reversed
nigrostriatal TH loss (6-OHDA model rats; data not shown): not reversed
NOAEL at 4 weeks [5]: 40 mg/kg/day
maximum dose determined in 2-week DRF study (G217013) (cynomolgus monkeys; cynomolgus monkeys, 0, 25, 50, 100 mg/kg/day p.o. for 2 weeks): 50 mg/kg/day
adverse effects in toxicity examinations (cynomolgus monkeys; cynomolgus monkeys, 10, 20, 40 mg/kg/day p.o. for 4 weeks): no adverse effects were observed
findings in single-dose escalation toxicity study (N217019) (cynomolgus monkeys; cynomolgus monkeys, 25, 50 and 100 mg/kg p.o.): no general symptoms, clinical pathological, or gross organ pathology
changes in body weight (cynomolgus monkeys; cynomolgus monkeys, male and female, 10, 20, 40 mg/kg/day p.o. for 4 weeks): no significant changes
Tmax ([6]; both sexes, cynomolgus monkey, plasma, po, cynomolgus monkeys, 10, 20 or 40 mg/kg/day p.o.): 4.72 ± 1.93 h
dose-dependent increase of AUClast ([6]; cynomolgus monkeys, 10, 20, 40 mg/kg/day p.o.): slightly less than proportional

Reference: article PMC8608967, “KDS2010, a Newly Developed Reversible MAO-B Inhibitor, as an Effective Therapeutic Candidate for Parkinson’s Disease” (Neurotherapeutics, 2021)
